The test system of this test is western and northern corn rootworm. As to the kind of experiment: Field trial (Example 3): corn rootworm damage by Iowa class, percent of control and synergy threshold. It counts as in vivo. Here is the method: A field trial was established and completed in accordance with pertinent protocols and in conformance with USDA notification requirements. The purpose of the trial was to determine the efficacy of transgenic event Cry3Bb.11231 in corn seed in combination with corn rootworm seed treatments using imidacloprid.
All seed treatments with pesticides were carried out as described in Example 1. In seed treatment number 1 and 2, Gaucho® was used for wire worm protection, but at levels sufficiently low that it would be expected to have no effect on corn rootworms (i.e., at a treatment level of about 60 gm of active/100 kg seed or 0.16 mg active/kernel), otherwise, seed receiving treatment number 2 had only transgenic event Cry3Bb.11231 and no pesticide treatment that would be expected to be effective against corn rootworm.
For seeds having treatments numbered 3 through 5, the pesticides were applied by the methods described in Example 1. For seeds having treatment numbers 6 and 7, commercially available Force® 3 G and Lorsban® 15 G were applied to the soil in a 5″ band at the time of sowing. The levels of application are as shown and are within the ranges recommended for standard commercial practice.
Corn seeds to be tested were planted and grown at four different locations across several Midwestern states in the United States corn belt according to the protocol described above.
The determination of damage by corn root worm was made according to the protocol described in Example 2.
The combination of imidacloprid seed treatment with corn seed having a Cry3Bb.11231 transgenic event was tested for possible synergy at a level of rootworm damage of 3-6. In the first test, shown in Table 2, the percentage of test plants having damage levels of from 3 to 6, on the Iowa 1-6 Scale, was determined for the control and for seeds treated with the pesticide at two levels, and for seeds having the transgenic event, alone and in combination. The following formula was then used to calculate a “synergy threshold”: (% of control Cry3Bb.11231)*(% of control imidacloprid treatment)/100.
This threshold was compared against the percent of control for the treatment combination (i.e., Cry3Bb.11231 with imidacloprid @ 400 gm/100 kg). If the treatment combination percent of control was below the threshold, then it was concluded that there was synergy.
It was believed that the measurement of rootworm damage at higher damage levels (i.e., levels 3-6) is a useful indicator that correlates with subsequent yield loss due to such damage. The reason for this is that rootworm damage at levels 1 and 2 seldom causes corn plants to fall over and lodge, and such minimal root loss is not believed to reduce the number or weight of kernels per ear. However, root damage at levels of 3 and above increasingly causes lodging and loss of yield. Therefore, it is believed that the summed damage levels of 3-6 (and in some cases, 4-6 and 5 and 6), provides a useful indication of the effect of corn rootworm damage on subsequent corn yield.

Consider one compound from US10036036B1, “Compositions and methods for deploying a transgenic refuge as a seed blend” (priority 2007, dated 2018).

Each structure is given as a SMILES string.

Regarding `O=[N+]([O-])NC1=NCCN1Cc1ccc(Cl)nc1` [Imidacloprid, 1-[(6-chloro-3-pyridinyl)methol]-N-nitro-2-imidazolidinimime], the “PERCENT OF CONTROL” value runs as follows: (Table 2, plants with damage levels 3-6 relative to isohybrid control) 80.5%; (Table 3, damage levels 3-6 relative to untreated control) 80.5%. The “NUMBER OF PLANTS HAVING 3-6 DAMAGE LEVEL” value (Table 3, damage levels 3-6 on Iowa 1-6 scale) was determined as 71.7. In addition, the “CORN ROOTWORM DAMAGE IN EACH IOWA CLASS (IOWA 1-6 SCALE): 1” value (count of plants in Iowa class 1) is listed as 3. Besides, the “CORN ROOTWORM DAMAGE IN EACH IOWA CLASS (IOWA 1-6 SCALE): 2” value (count of plants in Iowa class 2) stood at 15. The “CORN ROOTWORM DAMAGE IN EACH IOWA CLASS (IOWA 1-6 SCALE): 3” value (count of plants in Iowa class 3) is reported as 36. For the same compound, where the note is “count of plants in Iowa class 4”, the “CORN ROOTWORM DAMAGE IN EACH IOWA CLASS (IOWA 1-6 SCALE): 4” value came to 21. The “CORN ROOTWORM DAMAGE IN EACH IOWA CLASS (IOWA 1-6 SCALE): 5” value (count of plants in Iowa class 5) worked out at 5. Moreover, the “CORN ROOTWORM DAMAGE IN EACH IOWA CLASS (IOWA 1-6 SCALE): 6” value (count of plants in Iowa class 6) stood at 0.
